Assays:
[1] = biological target: T1, PAR4 (Homo sapiens (Human), UniProt Q96RI0); assay: FLIPR assay in PAR4-expressing HEK293 cells, test for antagonist activity; format: cell-based; details: H-Ala-Phe(4-F)-Pro-Gly-Trp-Leu-Val-Lys-Asn-Gly-NH2-induced calcium mobilization
Source text: The FLIPR assay is an exemplary in vitro assay for measuring the activity of the PAR4 antagonists of the present invention. In this assay, intracellular calcium mobilization is induced in PAR4 expressing cells by a PAR4 agonist and calcium mobilization is monitored. See, e.g., Example A. The FLIPR assay is also an exemplary in vitro assay for measuring the agonist activity of PAR4 agonist peptides. See Example H.
HEK293 cells stably expressing PAR4 were generated by a standard method of transfection of human […] cDNA expression vector or by RAGE technology from Athersys Inc. (Cleveland, Ohio) and selected based on PAR4 protein expression of mRNA expression. […] These cells express endogenous PAR1 and can elicit calcium signal upon stimulation with PAR1 agonist peptide.
Counter screens for agonist activity and PAR1 antagonist activity were also performed. Briefly, HEK293 EBNA PAR4 clone 20664.1J cells were plated 24 hrs. prior to experiment in 384 well, Poly-D-Lysine coated, black, clear bottom plates (Greiner Bio-One, Monroe, N.C.). Cells were plated at 20,000 cells/well in 20 μl growth medium and incubated at 37° C. with 5% CO2 overnight. At time of assay, media was replaced with 40 μl 1× Hank's Buffered Saline Solution (HBSS) (with 10 mM HEPES) and 20 μl test compound also diluted in 1×HBSS buffer was added at various concentrations and 0.67% DMSO final concentration on the FDSS for agonist measurement. The cells were then incubated for 30 minutes at room temperature followed by addition of 20 μl of agonist peptide for antagonist measurement on the FDSS.

[2] = biological target: T1, PAR4; assay: Gamma thrombin induced platelet aggregation assay (PRP assay); format: cell-based; details: platelet rich plasma
Procedure: The platelet rich plasma was isolated by centrifugation at 170 g for 14 minutes.
The ability of the compounds of the current invention to inhibit platelet aggregation induced by gamma-thrombin was tested in a 96-well microplate aggregation assay format. Briefly, PRP or washed platelet suspension (100 μl) was pre-incubated for 5 minutes at room temperature with varying concentrations of compounds. Aggregation was initiated by ˜10-50 nM gamma thrombin (Haematologic Technologies, Essex Junction, Vt.), which was titrated daily to achieve 80% platelet aggregation. Refludan at 1 U/mL (Berlex, Montville, N.J.) was added to the gamma thrombin sample to prevent PAR1 activation induced by residual alpha-thrombin contamination. The plate was then placed into a 37° C. Molecular Devices (Sunnyvale, Calif.) SPECTRAMAX® Plus Plate Reader. […] The plate also included an untreated control sample which served as ODmax, while buffer containing no platelets was the ODmin. Platelet aggregation was determined by subtracting the ODmax from the ODmin for the 100% aggregation value. In experimental samples, the observed transmission was subtracted from the minimum value and then compared to the 100% aggregation value to determine the percentage aggregation. IC50 values are determined using Excel Fit software.

[3] = test system: washed platelets; assay: PAR4 agonist peptide induced platelet aggregation assay (washed platelets); format: cell-based, human; details: agonist activity
Procedure: Human blood was collected in ACD (85 mM tri-sodium citrate, 78 mM citric acid, 110 mM D-glucose, pH 4.4) at a ratio of 1.4 ml per 10 ml blood. PRP was isolated by centrifugation at 170 g for 14 minutes and platelets were further pelleted by centrifugation at 1300 g for 6 minutes. Platelets were washed once with 10 ml ACD containing 1 mg/ml bovine serum albumin.
The ability of the compounds of the current invention to induce platelet aggregation was tested in a 96-well microplate aggregation assay format. Briefly, a washed platelet suspension with varying concentrations of agonist compounds was assayed. Aggregation was initiated by the addition of a titered test agonist peptide. The plate was then placed into a 37° C. Molecular Devices SPECTRAMAX® Plus Plate Reader (Sunnyvale, Calif.). […] The plate also included an untreated control sample which served as ODmax, while buffer containing no platelets was the ODmin. Platelet aggregation was determined by subtracting the ODmax from the ODmin for the 100% aggregation value. In experimental samples, the observed transmission was subtracted from the minimum value and then compared to the 100% aggregation value to determine the percentage aggregation. ED50 values were determined using Excel Fit software.

[4] = biological target: protease-activated receptor type 4 (PAR4) (Homo sapiens (Human), UniProt Q96RI0); details: abstract of Lee et al., J. Med. Chem. 2001; cited from earlier work
[5] = TRACER phase III trial, ACS patients; cited from earlier work

T1 sequence (Q96RI0 18-385): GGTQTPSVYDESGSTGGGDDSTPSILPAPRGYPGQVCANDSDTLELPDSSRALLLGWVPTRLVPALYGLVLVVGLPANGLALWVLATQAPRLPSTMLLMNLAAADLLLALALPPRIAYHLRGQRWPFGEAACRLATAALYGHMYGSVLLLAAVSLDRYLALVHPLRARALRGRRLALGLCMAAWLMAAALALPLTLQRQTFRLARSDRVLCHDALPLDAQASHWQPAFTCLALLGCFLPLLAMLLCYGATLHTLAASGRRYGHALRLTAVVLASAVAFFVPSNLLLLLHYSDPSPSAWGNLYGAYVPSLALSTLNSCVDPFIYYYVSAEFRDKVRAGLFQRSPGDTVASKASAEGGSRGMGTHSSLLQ
Sequence of protease-activated receptor type 4 (PAR4) (Q96RI0 18-385): as above

Row | Compound | ED50 (μM) [Platelet Aggregation] [3] [µM] | further results
1 | COc1cc(OCc2csc(C(F)(F)F)n2)c2cc(-c3cn4nc(OC)sc4n3)oc2c1 [Example 2, 2-Methoxy-6-(6-methoxy-4-((2-(trifluoromethyl)thiazol-4-yl)methoxy)benzofuran-2-yl)imidazo[2,1-b][1,3,4]thiadiazole] |  | EC50 [1]: 0.42 nM; IC50 [2]: 49 nM
2 | COc1cc(OCc2csc(-c3cc(C)on3)n2)c2cc(-c3cn4nc(OC)sc4n3)oc2c1 [Example 33] | 1.2 | EC50 [1]: 1.7 nM; IC50 [2]: 38 nM
3 | COc1cc(OCc2csc(C3CCCCC3)n2)c2cc(-c3cn4nc(OC)sc4n3)oc2c1 [Example 20] | 4.1 | 
4 | COc1cc(OCc2csc(-c3ccc(OC(F)(F)F)cc3)n2)c2cc(-c3cn4nc(OC)sc4n3)oc2c1 [Example 29] | 1.0 | 
5 | COc1cc(OCc2csc(N3CCN(C)CC3)n2)c2cc(-c3cn4nc(OC)sc4n3)oc2c1 [Example 22] | 1.2 | 
6 | COCCOCc1nc(COc2cc(OC)cc3oc(-c4cn5nc(OC)sc5n4)cc23)cs1 [Example 6, 2-Methoxy-6-(6-methoxy-4-((2-((2-methoxyethoxy)methyl)thiazol-4-yl)methoxy)benzofuran-2-yl)imidazo[2,1-b][1,3,4]thiadiazole] | 1.1 | 
7 | COc1cc(OCc2csc(-c3ccccc3OC)n2)c2cc(-c3cn4nc(OC)sc4n3)oc2c1 [Example 19] | 1.6 | 
8 | COc1cc(OCc2csc(-c3cccc(F)c3)n2)c2cc(-c3cn4nc(OC)sc4n3)oc2c1 [Example 25] | 52 | 
9 | COc1cc(OCc2csc(-c3ccc(Cl)cc3)n2)c2cc(-c3cn4nc(OC)sc4n3)oc2c1 [Example 27] | 1.7 | 
10 | COc1ccc(-c2nc(COc3cc(OC)cc4oc(-c5cn6nc(OC)sc6n5)cc34)cs2)cc1 [Example 18] | 5.5 | EC50 [1]: 2.5 nM; IC50 [2]: 3.6 nM
11 | COc1cc(OCc2csc(-c3ccccc3Cl)n2)c2cc(-c3cn4nc(OC)sc4n3)oc2c1 [Example 16] | 37 | 
12 | COc1cc(OCc2csc(N3CCCCC3)n2)c2cc(-c3cn4nc(OC)sc4n3)oc2c1 [Example 21] | 2.4 | 
13 | COc1cc(OCc2csc(-c3ccncc3)n2)c2cc(-c3cn4nc(OC)sc4n3)oc2c1 [Example 28] | 0.76 | 
14 | COc1cc(OCc2csc(-c3ccccc3)n2)c2cc(-c3cn4nc(OC)sc4n3)oc2c1 [Example 3, 2-Methoxy-6-(6-methoxy-4-((2-phenylthiazol-4-yl)methoxy)benzofuran-2-yl)imidazo[2,1-b][1,3,4]thiadiazole] | 0.86 | 
15 | CCc1nc(COc2cc(OC)cc3oc(-c4cn5nc(OC)sc5n4)cc23)cs1 [Example 23] | 0.79 | 
16 | COc1cc(OCc2nc(-c3ccccc3)sc2C)c2cc(-c3cn4nc(OC)sc4n3)oc2c1 [Example 13] | 0.67 | 

Row | Compound | ED50 (μM) [Platelet Aggregation] [3] [µM] | further results
17 | COc1cc(OCc2csc(-c3cnccn3)n2)c2cc(-c3cn4nc(OC)sc4n3)oc2c1 [Example 32] | 0.61 | 
18 | COc1cc(OCc2csc(-c3cccc(C)c3)n2)c2cc(-c3cn4nc(OC)sc4n3)oc2c1 [Example 12] | 0.97 | 
19 | COc1cc(OCc2csc(-c3ccc(F)cc3)n2)c2cc(-c3cn4nc(OC)sc4n3)oc2c1 [Example 15] | 0.63 | 
20 | COc1cc(OCc2cn(-c3ccccc3)nn2)c2cc(-c3cn4nc(OC)sc4n3)oc2c1 [Example 9, 2-Methoxy-6-(6-methoxy-4-((1-phenyl-1H-1,2,3-triazol-4-yl)methoxy)benzofuran-2-yl)imidazo[2,1-b][1,3,4]thiadiazole] |  | EC50 [1]: 5.3 nM; IC50 [2]: > 3000 nM
21 | COc1cc(OCc2csc(-c3cccc(C(F)(F)F)c3)n2)c2cc(-c3cn4nc(OC)sc4n3)oc2c1 [Example 17] | 106 | 
22 | COc1cc(OCc2csc(-c3ccccc3F)n2)c2cc(-c3cn4nc(OC)sc4n3)oc2c1 [Example 26] | 1.0 | 
23 | COc1cc(OCc2csc(C)n2)c2cc(-c3cn4nc(OC)sc4n3)oc2c1 [Example 1, 2-Methoxy-6-(6-methoxy-4-((2-methylthiazol-4-yl)methoxy)benzofuran-2-yl)imidazo[2,1-b][1,3,4]thiadiazole] | 13 | 
24 | COc1cc(OCc2csc(C3CCOCC3)n2)c2cc(-c3cn4nc(OC)sc4n3)oc2c1 [Example 14] | 12.3 | 
25 | COc1cc(OCc2csc(N3CCC(F)(F)CC3)n2)c2cc(-c3cn4nc(OC)sc4n3)oc2c1 [Example 31] | 0.63 | 
26 | CCOC(=O)c1ccc(-c2nn(Cc3ccccc3)c3ccccc23)cc1 [Compound 58] |  | inhibition of PAR4-dependent platelet activation [4]: selective and potent inhibitor
27 | COc1nn2cc(-c3cc4c(OCc5csc(-c6ccccc6)n5)cc(F)cc4o3)nc2s1 [Example 36, 6-(6-Fluoro-4-((2-phenylthiazol-4-yl)methoxy)benzofuran-2-yl)-2-methoxyimidazo[2,1-b][1,3,4]thiadiazole] |  | EC50 [1]: 1 nM; IC50 [2]: 48 nM
28 | COc1cc(OCc2csc(-c3cccnc3)n2)c2cc(-c3cn4nc(OC)sc4n3)oc2c1 [Example 30] | 1.7 | 
29 | COc1cc(OCc2csc(-c3ccc(F)cc3F)n2)c2cc(-c3cn4nc(OC)sc4n3)oc2c1 [Example 24] | 0.69 | 
30 | COc1cc(OCc2cnnn2-c2ccccc2)c2cc(-c3cn4nc(OC)sc4n3)oc2c1 [Example 10, 2-Methoxy-6-(6-methoxy-4-((1-phenyl-1H-1,2,3-triazol-5-yl)methoxy)benzofuran-2-yl)imidazo[2,1-b][1,3,4]thiadiazole] |  | EC50 [1]: 3.5 nM; IC50 [2]: 2700 nM
31 | CCOC(=O)N[C@@H]1CC[C@@H]2[C@@H](C1)C[C@H]1C(=O)O[C@H](C)[C@H]1[C@H]2/C=C/c1ccc(-c2cccc(F)c2)cn1 [vorapaxar] |  | cardiovascular events [5]: did not significantly reduce cardiovascular events; risk of major bleeding [5]: significantly increased the risk of major bleeding
32 | COc1cc(OCc2cscn2)c2cc(-c3cn4nc(OC)sc4n3)oc2c1 [Example 34] | 3.0 | 

From patent publication US9605024B2, “PAR4 agonist peptides” (Bristol-Myers Squibb Company, priority 2012, dated 2017)
